Reference: patent US20110178104A1, “Anti-Heparin Compounds” (POLYMEDIX INC., priority 2010, published 2011)
Read-outs that look alike come from different tables or passages of the source.

Assays:
[1] = test system: unfractionated heparin (UFH); assay: aPTT clotting assay, UFH 0.2 U/mL in plasma (Example 7); format: biochemical
Method: aPTT clotting Assay. Unfractionated heparin was mixed with plasma at a final concentration of 0.2 U/mL. […] The ACL Elite Hemostasis analyzer (Beckman Coulter™) was used to add aPTT reagent (HemosIL SynthASil) to supplemented plasma. Clotting was initiated by addition of CaCl2 and time to clot was recorded.

fondaparinux (FONDAPX) = assay: FXa chromogenic assay (absence of plasma), fondaparinux
enoxaparin (ENOX) = assay: FXa chromogenic assay (absence of plasma), enoxaparin
Method: Human antithrombin was mixed with an anticoagulant agent (a LMWH or fondaparinux); final concentrations were 0.22 μg/mL for the LMWHs and 0.07 μg/mL for fondaparinux. […] Absorbance was read every 30 seconds over a 4 minute period in a SpectraMax 250 instrument (Molecular Devices, Inc.). EC50 values are determined by a curve-fit program (SoftMax Pro) using the following formula:
FXa Chromogenic Assay (absence of plasma). Human antithrombin was mixed with an anticoagulant (a LMWH or fondaparinux); final concentrations were 0.1 μg/mL for the LMWHs and 0.02 μg/mL for fondaparinux. […] Absorbance was read every 30 seconds over a 4 minute period in a SpectraMax 250 instrument (Molecular Devices Inc.™) The slope of absorbance vs time was calculated for each compound concentration. EC50 values were determined using a curve fit program (GraphPad Prism 5).

[2] = fondaparinux 0.02 μg/mL, absence of plasma
[3] = enoxaparin 0.1 μg/mL, absence of plasma

Row | SMILES | UFH (aPTT) EC50 ([1]; UFH 0.2 U/mL in plasma) [mg/L] | FONDAPX (FXa) EC50 (fondaparinux (FONDAPX); [2]) | ENOX (FXa) EC50 (enoxaparin (ENOX); [3]) [mg/L] | UFH (aPTT) EC50 [1] [mg/L] | FONDAPX (FXa) EC50 (fondaparinux (FONDAPX)) [mg/L] | ENOX (FXa) EC50 (enoxaparin (ENOX)) [mg/L]
1 | COc1ccc(NC(=O)[C@H](CCCCN)NC(=O)c2cc(NC(=O)[C@@H](N)CCCCN)ccc2OC)cc1C(=O)N[C@@H](CCCCN)C(=O)Nc1ccc(OC)c(C(=O)N[C@@H](CCCCN)C(=O)Nc2ccc(OC)c(C(=O)N[C@H](C(=O)O)C(C)C)c2)c1 [Compound 114] | 3.00 | 12.56 mg/L | 0.9758 |  |  | 
2 | N=C(N)NCCC[C@@H](N)C(=O)Nc1ccc(OCCNC(=N)N)c(C(=O)N[C@H](CCCNC(=N)N)C(=O)Nc2ccc(OCCNC(=N)N)c(C(=O)N[C@H](CCCNC(=N)N)C(=O)Nc3ccc(OCCNC(=N)N)c(C(N)=O)c3)c2)c1 [Compound 9] | 5.35 | 40.16 mg/L | 2.90 |  |  | 
3 | COc1ccc(NC(=O)[C@@H](CCCNC(=N)N)NC(=O)c2cc(NC(=O)[C@@H](CCCNC(=N)N)NC(=O)c3cc(NC(=O)[C@@H](CCCNC(=N)N)NC(=O)c4cc(NC(C)=O)ccc4OC)ccc3OC)ccc2OC)cc1C(N)=O [Compound 93] | 2.28 | 0.42 mg/L | 0.38 |  |  | 
4 | COc1ccc(NC(=O)[C@H](CCCCN)NC(=O)c2cc(NC(=O)[C@H](CCCCN)NC(=O)c3cc(NC(=O)[C@H](CCCCN)NC(=O)c4cc(NC(=O)[C@@H](N)CCCCN)ccc4OC)ccc3OC)ccc2OC)cc1C(=O)N[C@@H](CCC(=O)O)C(=O)O [Compound 145] | 4.26 | 9.463 mg/L | 1.141 |  |  | 
5 | COc1ccc(NC(=O)[C@H](CCCCN)NC(=O)c2cc(NC(=O)[C@@H](N)CCCCN)ccc2OC)cc1C(=O)N[C@@H](CCCCN)C(=O)Nc1ccc(OC)c(C(=O)N[C@@H](CCCCN)C(=O)Nc2ccc(SC)c(C(N)=O)c2)c1 [Compound 134] | 2.84 | inactive | 1.829 |  |  | 
6 | COc1ccc(NC(=O)[C@@H](CCCNC(=N)N)NC(=O)c2cc(NC(=O)[C@@H](CCCNC(=N)N)NC(=O)c3cc(NC(=O)[C@@H](CCCNC(=N)N)NC(=O)c4cc(NC(C)=O)ccc4OC)ccc3OC)ccc2OC)cc1C(=O)NCCN [Compound 52] | 2.13 | 1.90 mg/L | 0.35 |  |  | 
7 | COc1ccc(NC(=O)[C@H](CCCCN)NC(=O)c2cc(NC(=O)[C@H](CCCCN)NC(=O)c3cc(NC(=O)[C@H](CCCCN)NC(=O)c4cc(NC(=O)[C@@H](N)CCCCN)ccc4OC)ccc3OC)ccc2OC)cc1C(=O)NCC(=O)O [Compound 107] | 1.34 | 6.961 mg/L | 0.498 |  |  | 
8 | COc1ccc(C(=O)N[C@H](CCCCN)C(=O)Nc2cc(C(=O)N[C@H](CCCCN)C(=O)Nc3cc(C(=O)N[C@H](CCCCN)C(=O)Nc4cc(C(N)=O)ccc4OC)ccc3OC)ccc2OC)cc1NC(=O)[C@H](N)CCCCN [Compound 35] | 30.65 | inactive | 45.00 |  |  | 
9 | COc1ccc(C(=O)N[C@@H](CCCCN)C(=O)Nc2ccc(OC)c(C(=O)N[C@@H](CCCCN)C(=O)Nc3ccc(OC)c(C(=O)N[C@@H](CCCCN)C(=O)Nc4ccc(OC)c(C(N)=O)c4)c3)c2)cc1NC(=O)[C@@H](N)CCCCN [Compound 99] | 1.54 | 6.132 mg/L | 0.2998 |  |  | 
10 | CSc1ccc(NC(=O)[C@H](CCCNC(=N)N)NC(=O)c2cc(NC(=O)[C@H](CCCNC(=N)N)NC(=O)c3cc(NC(=O)[C@H](CCCNC(=N)N)NC(=O)c4cc(NC(=O)[C@@H](N)CCCNC(=N)N)ccc4SC)ccc3SC)ccc2SC)cc1C(N)=O [Compound 97] | >10 | >20 mg/L | 0.9842 |  |  | 
11 | COc1ccc(NC(=O)[C@H](CCCNC(=N)N)NC(=O)c2cc(NC(=O)[C@H](CCCCN)NC(=O)c3cc(NC(=O)[C@H](CCCCN)NC(=O)c4cc(NC(=O)[C@@H](N)CCCCN)ccc4OC)ccc3OC)ccc2OC)cc1C(N)=O [Compound 78] | 2.99 | 6.28 mg/L | 0.49 |  |  | 
12 | COc1ccc(NC(=O)[C@@H](CCCNC(=N)N)NC(=O)c2cc(NC(=O)[C@@H](CCCNC(=N)N)NC(=O)c3cc(NC(=O)[C@@H](CCCNC(=N)N)NC(=O)c4cc(NC(=O)[C@H](N)CCCNC(=N)N)ccc4OC)ccc3OC)ccc2OC)cc1C(N)=O [Compound 136] | 2.91 | 0.8018 mg/L | 0.194 |  |  | 
13 | COc1ccc(NC(=O)[C@H](CCCCN)NC(=O)c2cc(NC(=O)[C@H](CCCCN)NC(=O)c3cc(NC(=O)[C@H](CCCCN)NC(=O)c4cc(NC(=O)[C@@H](N)CCCCN)ccc4OC)ccc3OC)ccc2OC)cc1C(N)=O [Compound 90] | 0.9713 | 0.272 mg/L | 0.093 |  |  | 
14 | COc1ccc(NC(=O)[C@H](CCCCN)NC(=O)c2cc(NC(=O)[C@H](CCCCN)NC(=O)c3cc(NC(=O)[C@H](CCCCN)NC(=O)c4cnc(N)s4)ccc3OC)ccc2OC)cc1C(N)=O [Compound 131] | 3.68 | >20 mg/L | 4.499 |  |  | 
15 | COc1ccc(NC(=O)[C@H](CCCCN)NC(=O)c2cc(NC(=O)[C@H](CCCCN)NC(=O)c3cc(NC(=O)[C@H](CCCCN)NC(=O)c4cc(NC(=O)[C@@H](N)CCCCN)ccc4OC)ccc3OC)ccc2OC)cc1C(=O)NCCCCCC(=O)O [Compound 143] | 2.96 | 12.700 mg/L | 1.011 |  |  | 
16 | COc1ccc(NC(=O)[C@@H](CCCNC(=N)N)NC(=O)c2cc(NC(=O)[C@@H](CCCNC(=N)N)NC(=O)c3cc(NC(=O)[C@@H](CCCNC(=N)N)NC(=O)c4cc(NC(=O)[C@H](N)CCCNC(=N)N)ccc4OC)ccc3OCCNC(=N)N)ccc2OCCNC(=N)N)cc1C(N)=O [Compound 11] | 5.79 | 7.04 mg/L | 1.66 |  |  | 
17 | COc1ccc(NC(=O)[C@H](CCCCN)NC(=O)c2cc(NC(=O)[C@H](CCCCN)NC(=O)c3cc(NC(=O)[C@H](CCCCN)NC(=O)c4c[nH]c5ccccc45)ccc3OC)ccc2OC)cc1C(N)=O [Compound 100] | 7.13 | 2.482 mg/L | 1.12 |  |  | 
18 | COc1ccc(NC(=O)[C@@H](CCCNC(=N)N)NC(=O)c2cc(NC(=O)[C@@H](CCCNC(=N)N)NC(=O)c3cc(NC(=O)[C@@H](CCCNC(=N)N)NC(=O)c4cc(NC(=O)[C@H](N)CC(N)=O)ccc4OC)ccc3OC)ccc2OC)cc1C(N)=O [Compound 72] | 2.11 | 1.22 mg/L | 0.22 |  |  | 
19 | COc1ccc(NC(=O)[C@H](CCCCN)NC(=O)c2cc(NC(=O)[C@H](CCCCN)NC(=O)c3cc(NC(=O)[C@H](CCCCN)NC(=O)c4cc(NC(=O)[C@H](C)N)ccc4OC)ccc3OC)ccc2OC)cc1C(N)=O [Compound 95] | 2.42 | 5.277 mg/L | 0.5734 |  |  | 
20 | COc1ccc(NC(=O)[C@H](CCCCN)NC(=O)c2cc(NC(=O)[C@H](CCCCN)NC(=O)c3cc(NC(=O)[C@H](CCCCN)NC(=O)c4cc(NC(=O)[C@@H](N)CCCCN)ccc4OC)ccc3OC)ccc2OC)cc1C(=O)NCCC(=O)O [Compound 108] | 1.50 | 10.57 mg/L | 0.6085 |  |  | 
21 | COc1ccc(NC(=O)[C@@H](CCCNC(=N)N)NC(=O)c2cc(NC(=O)[C@@H](CCCNC(=N)N)NC(=O)c3cc(NC(=O)[C@@H](CCCNC(=N)N)NC(=O)c4cc(NC(=O)[C@@H](CCCNC(=N)N)NC(=O)CCCCNC(=N)N)ccc4OC)ccc3OC)ccc2OC)cc1C(N)=O [Compound 38] | 2.37 | 1.94 mg/L | 0.18 |  |  | 
22 | COc1ccc(NC(=O)[C@@H](CCCCN)NC(=O)c2cc(NC(=O)[C@@H](CCCNC(=N)N)NC(=O)c3cc(NC(=O)[C@@H](CCCCN)NC(=O)c4cc(NC(=O)[C@H](N)CCCNC(=N)N)ccc4OC)ccc3OC)ccc2OC)cc1C(N)=O [Compound 43] | 2.33 | 4.44 mg/L | 0.36 |  |  | 
23 | COc1ccc(NC(=O)[C@@H](C)NC(=O)CCCCNC(=N)N)cc1C(=O)N[C@H](CCCNC(=N)N)C(=O)Nc1ccc(OC)c(C(=O)N[C@H](CCCNC(=N)N)C(=O)Nc2ccc(OC)c(C(=O)N[C@H](CCCNC(=N)N)C(=O)Nc3ccc(OCCNC(=N)N)c(C(N)=O)c3)c2)c1 [Compound 44] | 2.38 | 2.91 mg/L | 0.21 |  |  | 
24 | COc1ccc(NC(=O)[C@@H](CCCN)NC(=O)c2cc(NC(=O)[C@@H](CCCNC(=N)N)NC(=O)c3cc(NC(=O)[C@@H](CCCN)NC(=O)c4cc(NC(=O)[C@H](N)CCCNC(=N)N)ccc4OC)ccc3OC)ccc2OC)cc1C(N)=O [Compound 39] |  |  |  | 3.07 | 17.09 | 1.11
25 | COc1ccc(NC(=O)[C@@H](CCCNC(=N)N)NC(=O)c2cc(NC(=O)[C@@H](CCCNC(=N)N)NC(=O)c3cc(NC(=O)[C@H](CCCNC(N)=O)NC(=O)c4cc(NC(=O)[C@H](N)CCCNC(=N)N)ccc4OC)ccc3OC)ccc2OC)cc1C(N)=O [Compound 83] | 4.73 | 14.79 mg/L | 1.02 |  |  | 
26 | COc1ccc(NC(=O)[C@H](CCCCN)NC(=O)c2cc(NC(=O)[C@H](CCCCN)NC(=O)c3cc(NC(=O)[C@H](CCCCN)NC(=O)c4cc(NC(=O)[C@@H](N)CCCCN)cc(C(F)(F)F)c4)ccc3OC)ccc2OC)cc1C(N)=O [Compound 124] | 7.39 | 6.94 mg/L | 0.418 |  |  | 
